Results taken from ChEMBL document CHEMBL1201862, “PubChem BioAssay data set” (2004).
Active and inactive are the calls of the source. Rule as the data show it, for most assays here: actives have a measured EC50 and inactives only a lower limit.

Assays:
Protein RecA = molecular target: T1, Protein RecA (Mycobacterium tuberculosis, UniProt P9WHJ3); assay: Fluorescence Cell-Free Homogeneous Dose Retest to Identify Inhibitors of RecA-Intein Splicing Activity. [Related pubchem assays (depositor defined):AID2097, AID2223, AID489010, AID492950]; type: functional
T1 sequence (P9WHJ3 whole entry): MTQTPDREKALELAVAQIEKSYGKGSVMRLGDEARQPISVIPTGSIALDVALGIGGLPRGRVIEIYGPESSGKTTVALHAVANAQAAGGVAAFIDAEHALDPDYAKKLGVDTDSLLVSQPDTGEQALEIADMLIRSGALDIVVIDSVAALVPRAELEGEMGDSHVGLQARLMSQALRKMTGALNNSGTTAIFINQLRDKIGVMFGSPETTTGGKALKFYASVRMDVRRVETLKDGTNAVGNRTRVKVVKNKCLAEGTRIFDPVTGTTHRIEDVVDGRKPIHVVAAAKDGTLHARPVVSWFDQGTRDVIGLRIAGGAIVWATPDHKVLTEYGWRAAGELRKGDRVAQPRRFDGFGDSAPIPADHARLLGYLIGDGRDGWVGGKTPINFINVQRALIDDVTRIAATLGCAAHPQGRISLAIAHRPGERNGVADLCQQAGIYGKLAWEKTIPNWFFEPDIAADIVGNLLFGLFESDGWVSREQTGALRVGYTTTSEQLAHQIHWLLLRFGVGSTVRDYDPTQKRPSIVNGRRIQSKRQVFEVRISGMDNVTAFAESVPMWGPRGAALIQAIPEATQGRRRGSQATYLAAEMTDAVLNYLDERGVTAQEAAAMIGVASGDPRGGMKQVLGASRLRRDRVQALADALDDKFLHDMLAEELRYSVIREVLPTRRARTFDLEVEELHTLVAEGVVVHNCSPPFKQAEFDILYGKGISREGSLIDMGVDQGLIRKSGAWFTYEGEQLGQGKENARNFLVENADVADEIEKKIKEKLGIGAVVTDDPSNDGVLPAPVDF

[1] = molecular target: T2, Replicative DNA helicase DnaB (Mycobacterium tuberculosis, UniProt P9WMR3); assay: DnaB intein splicing inhibitors, dose response, biochemical, cell-free fluorescence (AID 449749); type: functional
T2 sequence (P9WMR3 whole entry): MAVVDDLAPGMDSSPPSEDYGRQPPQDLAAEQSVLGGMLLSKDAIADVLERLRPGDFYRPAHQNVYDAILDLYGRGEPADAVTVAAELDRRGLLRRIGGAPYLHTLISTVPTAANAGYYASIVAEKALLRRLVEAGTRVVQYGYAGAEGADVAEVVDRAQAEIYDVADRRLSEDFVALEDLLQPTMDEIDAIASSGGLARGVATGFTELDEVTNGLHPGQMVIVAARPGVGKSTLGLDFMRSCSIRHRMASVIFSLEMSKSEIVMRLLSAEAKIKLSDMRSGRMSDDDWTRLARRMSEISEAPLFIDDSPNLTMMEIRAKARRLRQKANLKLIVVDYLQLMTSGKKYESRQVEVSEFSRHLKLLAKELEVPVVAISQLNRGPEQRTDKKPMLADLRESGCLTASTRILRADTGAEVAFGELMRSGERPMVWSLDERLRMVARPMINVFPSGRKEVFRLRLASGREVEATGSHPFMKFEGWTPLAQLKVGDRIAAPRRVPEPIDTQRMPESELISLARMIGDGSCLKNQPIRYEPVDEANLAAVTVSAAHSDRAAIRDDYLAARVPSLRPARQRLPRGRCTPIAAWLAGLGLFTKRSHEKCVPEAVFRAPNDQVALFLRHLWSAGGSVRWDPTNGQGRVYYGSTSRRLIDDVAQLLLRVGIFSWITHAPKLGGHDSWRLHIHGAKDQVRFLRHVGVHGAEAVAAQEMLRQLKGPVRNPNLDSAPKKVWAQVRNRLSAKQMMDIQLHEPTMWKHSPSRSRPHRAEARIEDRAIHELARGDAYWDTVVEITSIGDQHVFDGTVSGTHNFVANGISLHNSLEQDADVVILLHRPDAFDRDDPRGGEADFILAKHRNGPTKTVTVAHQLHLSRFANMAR

Streptococcus = assay: Group A Streptococcus viability loss, dose response, counter-screen for streptokinase expression inhibitor project, luminescence, BacTiterGlo (AID 1915); type: functional, organism-based;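 also: potency for reduction of bacterial viability or growth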
Streptokinase A = molecular target: T3, Streptokinase A (Streptococcus pyogenes serotype M1, UniProt P10520); assay: S. pyogenes streptokinase expression inhibitors, potency, dose response, plasminogen activation absorbance, OD405 (AID 1914); type: functional, Streptococcus pyogenes M1 GAS;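 also: secreted streptokinase activity via plasminogen activation per viability signal from cell pellet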
T3 sequence (P10520 whole entry): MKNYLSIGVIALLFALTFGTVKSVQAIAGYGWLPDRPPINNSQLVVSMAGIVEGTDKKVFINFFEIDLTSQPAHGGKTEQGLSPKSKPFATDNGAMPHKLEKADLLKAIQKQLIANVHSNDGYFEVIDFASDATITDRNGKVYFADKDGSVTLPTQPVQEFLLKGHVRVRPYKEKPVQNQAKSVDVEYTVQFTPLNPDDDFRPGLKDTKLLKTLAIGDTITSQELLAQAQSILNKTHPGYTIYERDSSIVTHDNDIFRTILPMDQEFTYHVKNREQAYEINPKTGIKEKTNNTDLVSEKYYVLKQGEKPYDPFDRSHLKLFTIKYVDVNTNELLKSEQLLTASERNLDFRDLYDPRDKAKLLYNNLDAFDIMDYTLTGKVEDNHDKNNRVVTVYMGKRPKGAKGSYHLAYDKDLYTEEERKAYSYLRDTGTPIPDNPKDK

[2] = tested on: Streptococcus sp. 'group A'; assay: growth inhibition of control SK(-) GAS strain, dose response, counter-screen for streptokinase expression inhibitor project, luminescence, kanamycin, BacTiterGlo, confirmation (AID 1900); type: functional, organism-based
[3] = molecular target: 1-phosphatidylinositol 4,5-bisphosphate phosphodiesterase gamma-1 (Homo sapiens, UniProt P19174); assay: Counterscreen for inhibitors of phospholipase C isozymes (PLC-B3): Fluorescence-based biochemical high throughput dose response assay to identify inhibitors of phospholipase C isozymes (PLC-gamma1).
1-phosphatidylinositol 4,5-bisphosphate phosphodiesterase gamma-1, sequence (P19174 whole entry): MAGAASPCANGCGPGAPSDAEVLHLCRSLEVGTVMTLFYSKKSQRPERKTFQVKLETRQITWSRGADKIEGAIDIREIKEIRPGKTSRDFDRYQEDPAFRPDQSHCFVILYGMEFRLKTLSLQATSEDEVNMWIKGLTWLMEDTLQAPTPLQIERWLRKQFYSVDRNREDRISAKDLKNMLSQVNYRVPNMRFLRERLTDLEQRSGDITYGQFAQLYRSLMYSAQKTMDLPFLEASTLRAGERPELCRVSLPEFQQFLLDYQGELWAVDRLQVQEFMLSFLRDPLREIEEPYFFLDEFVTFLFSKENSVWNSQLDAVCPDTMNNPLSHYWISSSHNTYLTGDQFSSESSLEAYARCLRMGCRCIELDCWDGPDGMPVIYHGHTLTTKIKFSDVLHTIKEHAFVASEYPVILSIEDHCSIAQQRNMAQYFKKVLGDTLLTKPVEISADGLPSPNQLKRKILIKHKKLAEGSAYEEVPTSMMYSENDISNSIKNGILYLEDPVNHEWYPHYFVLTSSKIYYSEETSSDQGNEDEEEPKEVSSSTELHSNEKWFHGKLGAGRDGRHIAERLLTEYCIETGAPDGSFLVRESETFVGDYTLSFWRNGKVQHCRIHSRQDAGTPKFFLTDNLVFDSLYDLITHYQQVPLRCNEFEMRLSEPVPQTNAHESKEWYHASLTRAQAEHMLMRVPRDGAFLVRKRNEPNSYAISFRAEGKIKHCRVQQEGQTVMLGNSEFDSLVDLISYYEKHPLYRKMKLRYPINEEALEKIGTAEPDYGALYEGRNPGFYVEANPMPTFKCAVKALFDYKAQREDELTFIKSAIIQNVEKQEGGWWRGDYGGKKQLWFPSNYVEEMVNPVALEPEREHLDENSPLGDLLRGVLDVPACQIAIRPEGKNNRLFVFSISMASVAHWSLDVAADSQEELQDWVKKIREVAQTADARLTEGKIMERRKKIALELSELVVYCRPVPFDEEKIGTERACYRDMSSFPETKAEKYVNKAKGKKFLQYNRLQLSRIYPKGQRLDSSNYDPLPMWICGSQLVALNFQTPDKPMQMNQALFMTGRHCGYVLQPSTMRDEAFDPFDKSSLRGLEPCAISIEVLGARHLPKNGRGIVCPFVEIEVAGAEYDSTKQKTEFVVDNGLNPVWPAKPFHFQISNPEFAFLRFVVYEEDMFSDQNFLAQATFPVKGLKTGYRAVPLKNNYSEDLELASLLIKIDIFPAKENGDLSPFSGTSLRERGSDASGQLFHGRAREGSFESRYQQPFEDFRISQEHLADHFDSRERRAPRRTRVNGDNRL

Nonstructural protein 1 = Nonstructural protein 1 (Influenza A virus, UniProt Q194T2); type: functional, Influenza A virus (A/California/07/2009(H1N1))
Nonstructural protein 1, sequence (Q194T2 whole entry): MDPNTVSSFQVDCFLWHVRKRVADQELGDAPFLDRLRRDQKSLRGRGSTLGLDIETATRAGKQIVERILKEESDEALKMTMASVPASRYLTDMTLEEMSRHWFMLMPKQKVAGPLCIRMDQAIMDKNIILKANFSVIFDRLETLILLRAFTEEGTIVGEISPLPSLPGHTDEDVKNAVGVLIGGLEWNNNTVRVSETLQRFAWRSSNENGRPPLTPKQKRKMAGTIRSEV

Structure (SMILES)	EC50 (Protein RecA)	AC50 [1]	EC50 (Streptococcus)	EC50 (Streptokinase A)	EC50 [2]	IC50 [3]	IC50 (Nonstructural protein 1)
CCCCCCCCCCOC(=O)C[n+]1c(COc2ccccc2OC)n(C)c2ccccc21	8.91 µM (active)	3.92 µM (active)	12.7 µM (active)	> 150 µM (not active)	6.69 µM (active)	–	–
Cc1oc2c(c1C(=O)NCc1cccnc1)C(=O)c1ccccc1C2=O	0.0639 µM (active)	0.438 µM (active)	2.56 µM (active)	–	1.31 µM (active)	–	–
O=c1ccc2c(-c3ccccc3S(=O)(=O)O)c3ccc(O)c(O)c3oc-2c1O [PYROGALLOL RED]	–	–	–	–	–	14.2 µM (inactive)	13.5 µM (active)
